What follows are compounds tested against T1, recombinant full-length human prolyl endopeptidase (PREP) (Homo sapiens, UniProt P48147) (assay: Biochemical human prolyl endopeptidase (PREP) assay with fluorescently labelled substrate). Details: substrate Z-Gly-Pro-AMC 50 μM, 32° C., 60 min; some as mean values from multiple independent determinations.
T1 construct: To recombinant full-length human prolyl endopeptidase (PREP, R&D-Systems, 4308-SE); purchased R&D-Systems 4308-SE
T1 sequence (P48147 1-710): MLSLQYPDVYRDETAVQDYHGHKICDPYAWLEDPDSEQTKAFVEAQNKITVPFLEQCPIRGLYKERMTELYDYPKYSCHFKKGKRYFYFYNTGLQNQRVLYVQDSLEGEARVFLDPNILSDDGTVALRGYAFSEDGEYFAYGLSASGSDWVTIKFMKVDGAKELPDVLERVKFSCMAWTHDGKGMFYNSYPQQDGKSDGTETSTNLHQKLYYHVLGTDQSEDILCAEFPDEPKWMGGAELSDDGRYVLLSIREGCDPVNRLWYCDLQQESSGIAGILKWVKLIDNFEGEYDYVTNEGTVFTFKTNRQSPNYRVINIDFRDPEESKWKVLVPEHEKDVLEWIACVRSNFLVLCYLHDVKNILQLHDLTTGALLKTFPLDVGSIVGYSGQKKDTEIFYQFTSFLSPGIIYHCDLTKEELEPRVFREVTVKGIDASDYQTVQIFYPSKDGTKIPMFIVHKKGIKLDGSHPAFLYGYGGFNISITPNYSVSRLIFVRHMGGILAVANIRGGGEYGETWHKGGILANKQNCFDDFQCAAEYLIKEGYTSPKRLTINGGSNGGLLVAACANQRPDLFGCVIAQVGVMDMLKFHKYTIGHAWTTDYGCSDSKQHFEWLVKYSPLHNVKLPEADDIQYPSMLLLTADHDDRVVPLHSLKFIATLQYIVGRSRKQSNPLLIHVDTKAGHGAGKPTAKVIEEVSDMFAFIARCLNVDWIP
In short: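 0.4 nM (final, example) recombinant PREP in pH 7.5 Tris buffer with EDTA, GSH, BSA and Brij-35; compounds at 1 nM to 30 μM. Reaction started with 50 μM Z-Gly-Pro-AMC and followed by fluorescence (ex 360/em 465 nm) at 32° C for 60 min. IC50 interpolated from percent activity based on initial slopes.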
`O=C([C@@H]1CCCc2nn(Cc3ccc(F)cc3)c(=O)n21)N1CC(F)C1` [Example 546, (5S)-5-[(3-Fluoroazetidin-1-yl)carbonyl]-2-(4-fluorobenzyl)-5,6,7,8-tetrahydro[1,2,4]triazolo[4,3-a]pyridin-3(2H)-one] was tested, and the IC50 was 0.57 nM.
`O=C(C1CC(C(F)(F)F)Cc2nn(Cc3ccnc(C(F)(F)F)c3F)c(=O)n21)N1CC(F)C1` (single isomer, unassigned) [Example 255, (5RS,7RS)-5-[(3-Fluoroazetidin-1-yl)carbonyl]-2-{[3-fluoro-2-(trifluoromethyl)pyridin-4-yl]methyl}-7-(trifluoromethyl)-5,6,7,8-tetrahydro[1,2,4]triazolo[4,3-a]pyridin-3(2H)-one] was tested, and the IC50 was 15.1 nM.
With `O=C([C@@H]1CCCc2nn(Cc3ccc(Cl)cn3)c(=O)n21)N1C[C@@H](F)[C@@H](F)C1` [Example 378, (5S)-2-[(5-Chloropyridin-2-yl)methyl]-5-{[(3R,4S)-3,4-difluoropyrrolidin-1-yl]carbonyl}-5,6,7,8-tetrahydro[1,2,4]triazolo[4,3-a]pyridin-3(2H)-one] the IC50 was 2.6 nM.
In the case of `O=C([C@@H]1CCCc2nn(Cc3ncc(F)cc3F)c(=O)n21)N1C[C@@H](F)[C@@H](F)C1` [Example 411, (5S)-2-[(3,5-Difluoropyridin-2-yl)methyl]-5-{[(3R,4S)-3,4-difluoropyrrolidin-1-yl]carbonyl}-5,6,7,8-tetrahydro[1,2,4]triazolo[4,3-a]pyridin-3(2H)-one], the IC50 is reported as 2.5 nM.
Compound `CC(C)(C)OC(=O)c1ccc(Cn2nc3n(c2=O)C(C(=O)N2CCCC2)CCC3)cc1` (racemic) [Example 28, tert-Butyl 4-{[(5RS)-3-oxo-5-(pyrrolidin-1-ylcarbonyl)-5,6,7,8-tetrahydro[1,2,4]triazolo[4,3-a]pyridin-2(3H)-yl]methyl}benzoate] has an IC50 of 24 nM.
Compound `O=C(C1CCCc2nn(Cc3ccc(Cl)c(C(F)(F)F)c3)c(=O)n21)N1CCC(F)(F)C1` (racemic) [Example 43] has an IC50 of 1.9 nM.
`O=C(C1CC(C(F)(F)F)Cc2nn(Cc3ccnc(C(F)(F)F)c3F)c(=O)n21)N1CC[C@H](F)C1` (mixture of isomers) [Example 256, (5RS,7RS)-5-{[(3S)-3-Fluoropyrrolidin-1-yl]carbonyl}-2-{[3-fluoro-2-(trifluoromethyl)pyridin-4-yl]methyl}-7-(trifluoromethyl)-5,6,7,8-tetrahydro[1,2,4]triazolo[4,3-a]pyridin-3(2H)-one] gave an IC50 of 1.7 nM.
`O=C(C1CC(C(F)(F)F)Cc2nn(Cc3ccc(Cl)nc3)c(=O)n21)N1C[C@@H](F)[C@@H](F)C1` (single isomer, unassigned) [Example 248] gave an IC50 of 12 nM.
Work on `O=C([C@@H]1CCCc2nn(Cc3ccnc(C(F)(F)F)c3F)c(=O)n21)N1CCSC1` [Example 485, (5S)-2-{[3-Fluoro-2-(trifluoromethyl)pyridin-4-yl]methyl}-5-(1,3-thiazolidin-3-ylcarbonyl)-5,6,7,8-tetrahydro[1,2,4]triazolo[4,3-a]pyridin-3(2H)-one] yielded an IC50 of 4.3 nM.
In the case of `O=C(C1CCCc2nn(Cc3ccc(F)c(Cl)c3)c(=O)n21)N1CCCC1` (racemic) [Example 18, (5RS)-2-(3-Chloro-4-fluorobenzyl)-5-(pyrrolidin-1-ylcarbonyl)-5,6,7,8-tetrahydro[1,2,4]triazolo[4,3-a]pyridin-3(2H)-one], the IC50 is reported as 0.575 nM.
In the case of `O=C([C@@H]1CCCc2nn(Cc3ccnc(C(F)(F)F)c3F)c(=O)n21)N1CC(O)C1` [Example 481, (5S)-2-{[3-Fluoro-2-(trifluoromethyl)pyridin-4-yl]methyl}-5-[(3-hydroxyazetidin-1-yl)carbonyl]-5,6,7,8-tetrahydro[1,2,4]triazolo[4,3-a]pyridin-3(2H)-one], the IC50 is reported as 27.5 nM.
In the case of `Cc1ccc(C2(Cn3nc4n(c3=O)[C@H](C(=O)N3CC[C@H](O)C3)CCC4)CC2)cc1` [Example 525, (5S)-5-{[(3S)-3-Hydroxypyrrolidin-1-yl]carbonyl}-2-{[1-(4-methylphenyl)cyclopropyl]methyl}-5,6,7,8-tetrahydro[1,2,4]triazolo[4,3-a]pyridin-3(2H)-one], the IC50 is reported as 15.2 nM.
Compound `Cc1nc(-c2ccc(Cn3nc4n(c3=O)C(C(=O)N3CCCC3)CCC4)cc2)no1` (racemic) [Example 10, (5RS)-2-[4-(5-Methyl-1,2,4-oxadiazol-3-yl)benzyl]-5-(pyrrolidin-1-ylcarbonyl)-5,6,7,8-tetrahydro[1,2,4]triazolo[4,3-a]pyridin-3(2H)-one] has an IC50 of 24 nM.
Compound `O=C(C1CCCc2nn(Cc3ccc(Cl)s3)c(=O)n21)N1CCCC1` (racemic) [Example 53, (5RS)-2-[(5-Chloro-2-thienyl)methyl]-5-(pyrrolidin-1-ylcarbonyl)-5,6,7,8-tetrahydro[1,2,4]triazolo[4,3-a]pyridin-3(2H)-one] has an IC50 of 0.71 nM.
`O=C([C@@H]1CCCc2nn(CC3(c4ccc(F)cc4F)CC3)c(=O)n21)N1CC[C@H](F)C1` [Example 358] showed an IC50 of 0.068 nM.
Compound `O=C([C@@H]1CCCc2nn(Cc3nccc(C(F)(F)F)c3Cl)c(=O)n21)N1C[C@@H](F)[C@@H](F)C1` [Example 388, (5S)-2-{[3-Chloro-4-(trifluoromethyl)pyridin-2-yl]methyl}-5-{[(3R,4S)-3,4-difluoropyrrolidin-1-yl]carbonyl}-5,6,7,8-tetrahydro[1,2,4]triazolo[4,3-a]pyridin-3(2H)-one] has an IC50 of 0.575 nM.
`COc1ccc(Cn2nc3n(c2=O)[C@H](C(=O)N2C[C@@H](F)[C@@H](F)C2)CCC3)cn1` [Example 431, (5S)-5-{[(3R,4S)-3,4-Difluoropyrrolidin-1-yl]carbonyl}-2-[(6-methoxypyridin-3-yl)methyl]-5,6,7,8-tetrahydro[1,2,4]triazolo[4,3-a]pyridin-3(2H)-one] showed an IC50 of 0.995 nM.
In the case of `O=C(C1CCCc2nn(Cc3ccc(Cl)nc3)c(=O)n21)N1CCCC1` (single isomer, unassigned) [Example 32, (5RS)-2-[(6-Chloropyridin-3-yl)methyl]-5-(pyrrolidin-1-ylcarbonyl)-5,6,7,8-tetrahydro[1,2,4]triazolo[4,3-a]pyridin-3(2H)-one], the IC50 is reported as 1.48 nM.
`O=C([C@@H]1CCCc2nn(Cc3ncc(Cl)cc3F)c(=O)n21)N1CC[C@H](F)C1` [Example 568, (5S)-2-[(5-Chloro-3-fluoropyridin-2-yl)methyl]-5-{[(3S)-3-fluoropyrrolidin-1-yl]carbonyl}-5,6,7,8-tetrahydro[1,2,4]triazolo[4,3-a]pyridin-3(2H)-one] was tested, and the IC50 was 0.62 nM.
In the case of `CC(c1ccc(C(F)(F)F)nc1)n1nc2n(c1=O)[C@H](C(=O)N1C[C@@H](F)[C@@H](F)C1)CCC2` (single isomer, unassigned) [Example 219], the IC50 is reported as 7.3 nM.
With `O=C(C1CC(C(F)(F)F)Cc2nn(Cc3ccc(C(F)(F)F)nc3)c(=O)n21)N1CC(O)C1` (single isomer, unassigned) [Example 234, (5RS,7RS)-5-[(3-Hydroxyazetidin-1-yl)carbonyl]-7-(trifluoromethyl)-2-{[6-(trifluoromethyl)pyridin-3-yl]methyl}-5,6,7,8-tetrahydro[1,2,4]triazolo[4,3-a]pyridin-3(2H)-one] the IC50 was 120 nM.
`O=C(C1CC(C(F)(F)F)Cc2nn(Cc3ccc(C(F)(F)F)nc3)c(=O)n21)N1CC(F)C(F)C1` (single isomer, unassigned) [Example 584] gave an IC50 of 50 nM.

— patent publication US10722501B2 (BAYER AKTIENGESELLSCHAFT, priority 2016, dated 2020)
